In patent US20250213588A1, “STERILIZATION METHOD OF PHARMACEUTICAL PREPARATION AND PACKAGING” (SANTEN PHARMACEUTICAL CO., LTD., priority 2022, published 2025):
Entries after “also recorded” stand apart in the source; their conditions may differ.

Experiments:
Type in all cases: physicochemical
[1] = Photostability test (1): irradiation at specific wavelengths; conditions: Preparations 1 and 2; irradiated for 24 hours with multi-wavelength irradiation spectrometer; HPLC (FIG. 2)
Description: The stability of the aqueous pharmaceutical composition comprising AFDX0250 or a salt thereof under light irradiation was studied.
Preparation 1 with the composition shown in the above Table 1 and Preparation 2 with the composition shown in Table 4 were prepared in usual manners. The prepared preparations were used as test preparations.
The prepared test preparations were irradiated at specific wavelengths using multi-wavelength irradiation spectrometer for 24 hours, and the amount of AFDX0250 in each test preparation at each irradiation wavelength after the irradiation was quantified by high performance liquid chromatography to calculate the residual ratio of AFDX0250 (%). The residual ratio of AFDX0250 (%) represents the ratio of AFDX0250 (%) after irradiation when the amount of AFDX0250 in the test formulation is 100%.

[2] = Stability evaluation test after sterilization treatment; conditions: for Hydrolysate (%): Example 6 test preparation; for Residual ratio (%): Example 6 test preparation (0.25 g AFDX0250 in 50 mL, citrate buffer, sodium chloride)
Description: An aqueous pharmaceutical composition comprising AFDX0250 or a salt thereof was sterilized to evaluate the stability of AFDX0250 in a preparation.
Sodium citrate hydrate (2.5 g) was dissolved in purified water and the solution was adjusted exactly to 100 mL to prepare 2.5% sodium citrate hydrate solution. Citric acid hydrate (0.2 g) was dissolved in purified water and the solution was adjusted exactly to 100 mL to prepare 0.2% citric acid hydrate solution. Sodium chloride (5 g) was dissolved in purified water and the solution was adjusted exactly to 50 mL to prepare 10% sodium chloride solution. 0.25 g of AFDX0250 was weighed, the weighed AFDX0250 was mixed with 10 mL each of 2.5% sodium citrate hydrate solution, 0.2% citric acid hydrate solution and 10% sodium chloride solution, and then the solution was adjusted exactly to 50 mL with purified water to prepare a test preparation.
The prepared test preparation was subjected to gamma radiation sterilization, sterilization by filtration using a filter or autoclaved (AC) sterilization to prepare a sterile formulation. The amount of AFDX0250 after each sterilization treatment was quantified by high performance liquid chromatography to calculate the residual ratio of AFDX0250 (%). The residual ratio of AFDX0250 (%) represents the ratio of AFDX0250 (%) after sterilization treatment when the amount of AFDX0250 in the test preparation is 100%. In addition, the amount of AFDX0250-derived hydrolysate (5,11-dihydro-6H-pyrido[2,3-b][1,4]benzodiazepin-6-one) in each test preparation excluding the test preparation subjected to gamma radiation sterilization was quantified by high performance liquid chromatography.

[3] = Absorption wavelength measurement test (UV-visible spectrophotometer); conditions: 0.0025% AFDX0250 solution in acetonitrile
Description: The absorption wavelength of AFDX0250 was measured.
AFDX0250 (10 mg) was dissolved in acetonitrile, and the solution was adjusted exactly to 100 mL to prepare 0.01% AFDX0250 solution. The solution was diluted 4-fold to prepare 0.0025% AFDX0250 solution. The prepared 0.0025% AFDX0250 solution was used as a test preparation.
The absorption spectrum of the prepared test preparation was measured using ultraviolet visible spectrophotometer.

[4] = after AC (autoclaved) sterilization
[5] = after sterilization by filtration using a filter

- Hydrolysate (%) [2, 4]: 0.37%
- Residual ratio (%) [2, 4]: 93.8%
- Residual ratio (%) ([2]; after gamma radiation sterilization): 55.7%
- Hydrolysate (%) [2, 5]: 0.06%
- Residual ratio (%) [2, 5]: 100.3%
Compound: CCN(CC)C[C@H]1CCCCN1CC(=O)N1c2ccccc2C(=O)Nc2cccnc21 [AFDX0250, (R)-11-[2-[2-[(diethylamino)methyl]-1-piperidinyl]acetyl]-5,11-dihydro-6H-pyrido[2,3-b][1,4]benzodiazepin-6-one]
- degradation of AFDX0250 under irradiation at specific wavelengths [1]: degraded at a wavelength of from 216 to 310 nm and 372 nm; also recorded: particularly degraded at a wavelength of 370 nm
- absorption spectrum of AFDX0250 [3]: no absorption of AFDX0250 was observed at the longer wavelengths than about 330 nm
